Kd data for 1 compound are collected here from ChEMBL document CHEMBL4627273, “BET proteins: Investigating BRDT as a potential target for male contraception” (Bioorg Med Chem Lett, 2020).

The experiment deals with Bromodomain testis-specific protein (Homo sapiens, UniProt Q58F21). Kind of experiment: Binding affinity to human partial length BRDT bromodomain 1 (N21 to E137 residues) expressed in bacterial expression system by BROMOscan assay.

Broadly, the Kd is the equilibrium constant for the complex coming apart. A lower Kd goes with higher affinity. The compound `Cc1sc2c(c1C)C(c1ccc(Cl)cc1)=N[C@@H](CC(=O)NCCCCNC(=O)COc1cccc3c1C(=O)N(C1CCC(=O)NC1=O)C3=O)c1nnc(C)n1-2` (stereo partly specified) gave a Kd of 6 to 19 nM.
